Experimental data: the supplement of paper PMC10307832

Tests used:
Test in all cases: relative viability (nuclei count vs DMSO), 5 days (fraction); higher = more cells survive
[1] = compound: Cc1nc(C(=O)NCC(=O)O)c(O)c2ccc(Oc3ccccc3)cc12 [FG-4592] + Cc1nc(Nc2ncc(C(=O)Nc3c(C)cccc3Cl)s2)cc(N2CCN(CCO)CC2)n1 [Dasatinib] (partner 0.075 µM)
In short: (§1)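 Nuclei were stained with Hoechst during a one-step fixation (final 0.05% Triton X-100, 1% formaldehyde, 1 ug/ml Hoechst) carried out 5 days after dosing, then counted on 4× images. The cells, lung cancer lines in 1536-well plates, had been dosed by pin tool the day after seeding with one drug alone or a fixed anchor-drug dose plus five library-drug doses (not always all listed) in √10 steps. Relative viability is the nuclei count in treated wells divided by that in vehicle wells, and each value is the median of duplicate plates.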

[2] = compound: Cc1nc(C(=O)NCC(=O)O)c(O)c2ccc(Oc3ccccc3)cc12 [FG-4592] + CCNC(=O)c1noc(-c2cc(C(C)C)c(O)cc2O)c1-c1ccc(CN2CCOCC2)cc1 [Luminespib] (partner 0.01 µM)
In short: as §1

[3] = compound: CC1=CC(=C(N1C2=CC=C(C=C2)Cl)C)C(=O)CN3CCCCC3 [IU1-47] + CC(C)C[C@H](NC(=O)[C@H](Cc1ccccc1)NC(=O)c1cnccn1)B(O)O [Bortezomib] (partner 0.002 µM)
In short: as §1

[4] = compound: CC1=CC(=C(N1C2=CC=C(C=C2)Cl)C)C(=O)CN3CCCCC3 [IU1-47] + Nc1ncn([C@H]2C[C@H](O)[C@@H](CO)O2)c(=O)n1 [Decitabine] (partner 2 µM)
In short: as §1

Row | Cell Line | relative viability ([1]; first compound 0.08 µM) | relative viability ([1]; first compound 0.253 µM) | relative viability ([1]; first compound 0.8 µM) | relative viability ([1]; first compound 2.53 µM) | relative viability ([1]; first compound 8 µM) | relative viability ([2]; first compound 0.08 µM) | relative viability ([2]; first compound 0.253 µM) | relative viability ([2]; first compound 0.8 µM) | relative viability ([2]; first compound 2.53 µM) | relative viability ([2]; first compound 8 µM) | relative viability ([3]; first compound 0.08 µM) | relative viability ([3]; first compound 0.253 µM) | relative viability ([3]; first compound 0.8 µM) | relative viability ([3]; first compound 8 µM) | relative viability ([4]; first compound 0.08 µM) | relative viability ([4]; first compound 0.253 µM) | relative viability ([4]; first compound 0.8 µM) | relative viability ([4]; first compound 2.53 µM) | relative viability ([4]; first compound 8 µM) | relative viability ([3]; first compound 2.53 µM)
1 | PC-3 [JPC-3] | 1.04 | 0.92 | 0.896 | 1.05 | 0.954 | 0.735 | 0.639 | 0.817 | 0.798 | 0.575 | 0.909 | 0.805 | 0.841 | 0.885 | 0.905 | 0.935 | 0.886 | 0.834 | 0.888 | –
2 | PC-14 | 0.274 | 0.195 | 0.275 | 0.311 | 0.343 | 0.136 | 0.177 | 0.143 | 0.197 | 0.16 | 1.12 | 0.833 | 0.957 | 0.697 | 0.177 | 0.205 | 0.235 | 0.261 | 0.209 | 0.942
3 | RERF-LC-KJ | 0.91 | 0.701 | 0.739 | 0.836 | 0.678 | 1.23 | 1.24 | 1.45 | 1.17 | 0.991 | 1.16 | 1.18 | 1.12 | 1.06 | 0.784 | 0.912 | 0.673 | 0.639 | 0.578 | 1.14
4 | SK-LU-1 | 0.167 | 0.17 | 0.15 | 0.159 | 0.151 | 0.184 | 0.174 | 0.187 | 0.223 | 0.202 | 1.22 | 1.2 | 1.4 | 1.05 | 0.57 | 0.695 | 0.692 | 0.56 | 0.543 | 1.03
5 | SW 1573 | 0.528 | 0.344 | 0.522 | 0.354 | 0.406 | 0.224 | 0.547 | 0.186 | 0.415 | 0.223 | 1.15 | 1.04 | 1.41 | 0.861 | 0.529 | 0.599 | 0.542 | 0.342 | 0.506 | 1.3
